This note sets out measurements from US10694742B2, “Composition comprising a pesticide and a hydroxyalkyl polyoxylene glycol ether” (BASF SE, priority 2014, dated 2020).

In one data set the test system is Septoria and Brown rust. Nature of the data set: Field trial winter wheat, yield. It counts as in vivo, winter wheat (var. Akteur). Particulars: for Yield Winter Wheat, Relative Yield (%): half rate (N/2) Epoxiconazole SC 125 applied twice at BBCH 32 and 51, adjuvant 150 ml/ha in tank mix, comparative experiment = 100.0. The method, then: (§1) Field studies were conducted on a Parabraunerde soil in accordance with GEP in southern Germany on commercially planted winter wheat (var. Akteur) and winter rapeseed (var. Genie), respectively, exposed to a maritime climate. The standard experimental design was a randomized complete block with 4 replicates. There was no artificial infestation. Fungicides were applied at their label rate (N) and when mixed with adjuvants in the tank, at half rate (N/2). Dose rate of adjuvants was 150 ml/ha. Efficacy was measured by yield in dt/ha. Following the analysis of variance a mean separation test (Student-Newman-Keuls) was applied at a 5% significance level. All treatments were fully selective.
Spray volume was 200 l/ha applied with an AirMix 110-03 nozzle at a pressure of 1.9 bar. Plots were in 2.5 m by 7 m large. Epoxiconazole SC 125 with a dispersing additive (based on naphthalene sulfonic acid formaldehyde condensation product, sodium salt) was applied twice at the growth stages (BBCH) 32 and 51. During the course of trial, there was a natural infestation of Septoria and Brown rust. In each treatment, the dose rate of adjuvants was 150 ml/ha.
(§2) For a quantitative measure, the yield of each treatment was determined.

Another data set has as its system Wheat plants. The data set is described as follows: Uptake rate of pesticide into sprayed wheat leaves (HPLC-MS/MS). To be noted: 125 g/ha epoxiconazole, 125 g/ha fluxapyroxad, 250 g/ha adjuvant compound; 200 l/ha; leaves sampled after 8 days. Type of data set: in vivo, Triticum aestivum variety Melon. An excerpt:
Wheat plants (Triticum aestivum variety Melon) were cultivated in the greenhouse for 6 weeks up to development stage BBCH 39. The plants were transferred to an automatic lab track sprayer and they were sprayed with 125 g/ha epoxiconazole, 125 g/ha fluxapyroxad, and 250 g/ha of the respective Compound 1-5 according to the following parameters:
Nozzle type: Air injector, ID 120 02 (Lechler, Germany)
Subsequently to spraying, the plants were cultivated again in the greenhouse under ambient conditions. After 8 days samples of 10-15 treated leaves were cut off and weighed.
Leaves were cut into small pieces, transferred into glass bottles and washed with 50% methanol in demineralized water as washing medium for 5 min. Then, the washing medium was separated from the leaves. The leaves were washed again with washing medium for 5 min. […]
Finally, the leaves were transferred to a vial containing the extraction medium (75% methanol, 20% water and 5% HCl) and homogenized using a Polytron PT 6100 dispersing unit (Kinematica, CH) for 2 min. […] The residue was solubilized in methanol/water 50:50 and analyzed by HPLC-MS/MS.
An Agilent 1100 series HPLC coupled to an Applied Biosystems API 3000 triple quadrupole mass spectrometer, equipped with an electro spray ionization source, was used. […] According to the recovery rate the measured sample values were corrected. […]

The next data set has as its system Puccinia triticina. The data set is described as follows: Greenhouse biological activity on infected wheat. Type of data set: in vivo, Puccinia triticina on wheat (species Kanzler). Particulars: sprayed three days after infection, rated after ten days, three replicates. How it is done:
The biological activity was assessed in a greenhouse on wheat (species “Kanzler”), which was infected with Puccinia triticina at two leafes stage and incubated for three days at high humidity. The plants were sprayed (spray volume 200 l/ha) with a composition comprising 50 ppm (10 g/ha or 2.5 g/ha dose rate) epoxiconazole and 100 ppm (20 g/ha) of the respective Compounds 1-7. In the comparative example no adjuvant was added. The plants were further cultivated for ten days at 20-24° C. and 60-90% relative humidity. Finally, the percentage of the infected leaf area (pustules) was visually inspected. Each value was based on three replicates.

Another data set concerns Sclerotinia sp. The data set is described as follows: Field trial rapeseed, yield. It counts as in vivo, winter rapeseed (var. Genie). Particulars: half rate (N/2) Cantus Gold SC applied at BBCH 51; adjuvant 150 ml/ha in tank mix; comparative experiment = 100.0. The method, then: as §1
Spray volume was 250 l/ha applied with an AirMix 110-03 nozzle at a pressure of 2.1 bar. Plots were in 3 m by 7 m large. Cantus® Gold SC (200 g/l Boscalid and 200 g/l Dimoxystrobin with a dispersing additive based on benzenesulfonic acid, hydroxy-, polymer with formaldehyde, phenol and urea, sodium salt) was applied at the growth stage (BBCH) 51 of rapeseed on a Parabraunerde soil. During the course of trial, there was a natural infestation of Sclerotinia sp. In each treatment, the dose rate of adjuvants was 150 ml/ha.
as §2

For `Fc1ccc([C@]2(Cn3cncn3)O[C@H]2c2ccccc2Cl)cc1` (racemic) [epoxiconazole], the “Yield Winter Wheat, Relative Yield (%)” value with Septoria and Brown rust was 103.5%. The “Epoxiconazole Uptake Rate [%]” value in the data set on Wheat plants is listed as 19%. Further, the “Infected leaf area 2,5 g/ha dose rate” value with Puccinia triticina (epoxiconazole 2,5 g/ha + 100 ppm (20 g/ha) adjuvant compound) is given as 78%. For the same compound, the “Infected leaf area 10 g/ha dose rate” value in the data set with Puccinia triticina (epoxiconazole 10 g/ha + 100 ppm (20 g/ha) adjuvant compound) came to 48%.
On to `CCCCCCCCC(O)COCCOCCOCCOCCOCCOCCOCCOCCOCCOCC(CC)CCCC` (stereo not shown) [Compound C], for which the “Improvement of yield of the half rate (N/2) compared to N/2 alone, wheat” value with Septoria and Brown rust (N/2 epoxiconazole + adjuvant 150 ml/ha, Student-Newman-Keuls, 5% significance level) is listed as “significant improvements”. Also, in the data set with Septoria and Brown rust, the “Yield Winter Wheat, Relative Yield (%)” value was determined as 109.4%. Moreover, the “Yield Rapeseed, Relative Yield (%)” value in the data set with Sclerotinia sp. is on record as 104.6%.
